Patent US8129137B2, “Two-photon probe for real-time monitoring of intracellular free zinc ions, method for preparing the probe and method for real-time monitoring of intracellular free zinc ions using the probe” (Korea University Industrial & Academic Collaboration …, priority 2008, dated 2012)
≈ marks a conversion by molar mass, not a printed value.

Experiments:
[1] = system: 293 cells; assay: Two-photon microscopy of probe-labeled 293 cells; format: cell-based; conditions: for TPEF of labeled cells collected at 360-460 nm / TPEF of labeled cells collected at 500-620 nm: 2 μM probe, excitation 780 nm
Experimental: 293 cells were incubated in DMEM (WelGene) supplemented with 10% FBS (WelGene), penicillin (100 unit/ml) and streptomycin (100 μg/ml).
Two days before imaging, the cells were transferred to glass-bottomed dishes (MatTek) and plated thereon. For labeling, the growth medium was replaced with FBS-free DMEM. The cells were incubated under 5% CO2, 37° C., using a 2 μM sensor for 30 minutes, washed three times with phosphate-buffered saline (PBS; Gibco), and further incubated in a colorless serum-free medium. Meanwhile, primary cortical cultures were taken from cerebral cortices of 1-day-old rats (Sprague-Dawley (SD)). The cerebral cortices were dissociated in Hank's balanced salt solution (HBSS; Gibco BRL, Gaithersburg, Md., USA) containing 1 U/ml papain (Worthington Biochemical Corporation, NJ, USA), plated at a density of 100 to 200 cells/mm^2 on poly-D-lysine and laminin-coated glass cover slips, and maintained in Neurobasal media (Gibco) supplemented with 2% B-27 (Gibco) and penicillin/streptomycin in a CO2 incubator at 37° C. After […] 7-15 days, the cortical cultures were washed three times with PBS and incubated in the presence of AZn2 (2 μM) in PBS at 37° C. for 30 minutes.
Two-photon fluorescence microscopy images of cells and tissue labeled with AZn2 were obtained with spectral confocal and multiphoton microscopes (Leica TCS SP2) with a ×100 oil objective and numerical aperture (NA)=1.30. The two-photon fluorescence microscopy images were obtained by exciting the two-photon probe with a mode-locked titanium-sapphire laser source (Coherent Chameleon, 90 MHz, 200 fs) set at wavelength of 780 nm and an output power of 1,230 mW, which corresponded to approximately 10 mW average power in the focal plane. To obtain images at 360-460 nm and 500-620 nm range, internal PMTs were used to collect the signals in an 8 bit unsigned 512×512 pixels at 400 Hz scan speed.
Moreover, because the fluorescence intensities of the two-photon probes increase slightly at pH<4 (FIGS. 8a and 8b), there is a possibility that the probes in the acidic vesicles might partially contribute to the TPM images. To rule out such possibility, 293 cells and primary cortical cultures were co-stained with AZn2 and LysoTracker Red (LTR), a well known one-photon fluorescent probe for the acidic vesicles, and the images were co-localized.
More specifically, (a) and (f) are bright field images, (b) and (g) are pseudo colored images of the AZn2-labeled 293 cells collected at 360-460 nm, (c) and (h) are pseudo colored images of the AZn2-labeled 293 cells collected at 500-580 nm, (d) and (i) are OPM images of the LTR-labeled 293 cells collected at 600-650 nm, and (e) and (j) are co-localized images. The one-photon and two-photon excitations were performed at 543 nm and 780 nm, respectively, the scale bar is 30 μm, and the images shown are representative images from replicate experiments (n=5).
FIG. 13 is images of AZn1- and LTR (2 μM for each)-labeled 293 cells: (a)-(e) and (f)-(j) are images of the labeled cells before and after addition of 100 μM TPEN to the imaging solution, respectively. More specifically, (a) and (f) are bright field images; (b) and (g) are pseudo colored images of the AZn1-labeled 293 cells collected at 360-460 nm; (c) and (h) are pseudo colored images of the AZn1-labeled 293 cells collected at 500-580 nm; (d) and (i) are OPM images of the LTR-labeled 293 cells collected at 600-650 nm; and (e) and (j) are co-localized images. […]

[2] = system: 293 cells; assay: TPEF monitoring of labeled 293 cells after SNOC and TPEN; format: cell-based; conditions: 10 mM SNOC, 0.1 mM TPEN, compared with AZn2
Experimental: Referring to FIG. 14, the TPEF intensity increased gradually with time and then decreased abruptly upon addition of 0.1 mM TPEN, a membrane permeable Zn^2+chelator that can effectively remove Zn^2+.

[3] = Measurement of water solubility; format: physicochemical; conditions: kinetic from dmso stock, H2O, 0.2% DMSO, maximum concentration in the linear region of fluorescence intensity vs probe concentration
Experimental: A small amount of each of the two-photon probes (AZn2 and AZn1) prepared in Examples 1 and 2 was dissolved in DMSO to prepare a stock solution ([…]). The solution was diluted to 6.0×10^−3˜6.0×10^−5 M and added to a cuvette containing 3.0 mL of H2O by using a micro syringe. In all cases, the concentration of DMSO in H2O was maintained to be 0.2%.
FIGS. 1a through 1d are plots showing variations in the fluorescence intensity of the two-photon probes at different concentrations.
The plots of FIGS. 1b and 1d show variations in the fluorescence intensity of AZn2 and AZn1 as a function of the probe concentration, respectively, and have a profile in which the fluorescence intensity increases linearly at low concentrations. […] The maximum concentration in the linear region was taken as the water solubility. The water solubilities of the two probes were all 3.0 μM.

[4] = system: rat hippocampal slice; assay: Monitoring of Zn2+ in rat hippocampal slice by TPM
Experimental: In this experimental example, TPM images were obtained from a part of acute rat hippocampal slice incubated with 10 μM AZn2 for 30 min at 37° C. Because the slice of a 14-day old rat was too big to show with one image, several TPM images were obtained in the same plane at ˜120 μm depth and combined. […]
The negligible TPEF (c) after addition of TPEN, which effectively remove the [Zn^2+]i, provides a supporting evidence for this observation.
When 50 mM KCl, a membrane depolarizer causing the release of Zn^2+, was added to the imaging solution, the TPEF intensity increased, and then decreased upon treatment with TPEN. Similar results can also be found in (d)-(f) of FIG. 15.

| solubility [3] | Compound | TPEF of labeled cells collected at 360-460 nm [1] | TPEF of labeled cells collected at 500-620 nm [1] | TPEF response after SNOC then TPEN [2] | TPEF intensity after addition of KCl ([4]; 50 mM KCl, hilus of dentate gyrus) | TPEF after addition of TPEN ([4]; hilus of dentate gyrus, FIG. 17) | depth at which intracellular free Zn2+ is imaged in live tissue ([4]; rat hippocampal slice, 10 μM probe) | intracellular location of probe [1] |
| --- | --- | --- | --- | --- | --- | --- | --- | --- |
| 3 µM (≈ 1 µg/mL) | Nc1ccc(NCCN(Cc2ccccn2)Cc2ccccn2)cc1 [AZn1] | no TPEF | appreciable TPEF | the response was smaller |  |  |  |  |
| 3 µM (≈ 1.81 µg/mL) | COc1cc(NC(=O)CN(C)c2ccc3cc(C(C)=O)ccc3c2)ccc1NCCN(Cc1ccccn1)Cc1ccccn1 [AZn2] | no TPEF | appreciable TPEF |  | increased | clear reduction in TPEF | 80-150 μm | predominantly located in the cytosolic compartments |
